Values after ≈ are worked out from the molar mass of the structure shown. Read-outs that look alike come from different tables or passages of the source.
Key:
[1] = tested on: Trichophyton mentagrophytes #4329; experiment: Antifungal MIC, Sabouraud dextrose agar; type: cell-based
[2] = tested on: Fusarium moniliforme A2284; experiment: Antifungal MIC, Sabouraud dextrose agar; type: cell-based; settings: Fusarium verticillioides
Mucor spinosus IF05317 = experiment: Antifungal MIC, Sabouraud dextrose agar; type: cell-based
[3] = tested on: Aspergillus flavus FA21436; experiment: Antifungal MIC, Sabouraud dextrose agar; type: cell-based
[4] = tested on: Cryptococcus neoformans D49; experiment: Antifungal MIC, Sabouraud dextrose agar; type: cell-based
[5] = tested on: Cryptococcus neoformans IAM4514; experiment: Antifungal MIC, Sabouraud dextrose agar; type: cell-based
Piricularia oryzae D91 = experiment: microbe, parasite or virus in culture; type: cell-based
[6] = tested on: Petriellidium boydii IF08073; experiment: Antifungal MIC, Sabouraud dextrose agar; type: cell-based; settings: Scedosporium boydii
Micrococcus luteus 1001 = experiment: Antibacterial MIC, serial agar dilution; type: cell-based; settings: aerobic, nutrient agar
[7] = tested on: Propionibacterium acnes A21933; experiment: Antibacterial MIC, serial agar dilution; type: cell-based; settings: Cutibacterium acnes, anaerobic, GAM agar
[8] = tested on: Escherichia coli A20341-1; experiment: Antibacterial MIC, serial agar dilution; type: cell-based; settings: A203411, aerobic, nutrient agar, ampicillin-resistant
[9] = tested on: aerobic and anaerobic bacteria; type: cell-based; settings: for activity against Gram-negative organisms: versus Gram-positive
Moser = experiment: In vitro cytotoxicity; type: cell-based; settings: Homo sapiens; 72 hours, neutral red, 540 nm
[10] = tested on: Clostridium perfringens A9635; experiment: microbe, parasite or virus in culture; type: cell-based
[11] = tested on: Staphylococcus epidermidis A22152; experiment: Antibacterial MIC, serial agar dilution; type: cell-based; settings: aerobic, nutrient agar, kanamycin-resistant
fungi = experiment: In vitro antifungal activity, overall spectrum; type: cell-based; settings: all organisms tested except Cryptococcus neoformans
Escherichia coli A9624 = experiment: Antibacterial MIC, serial agar dilution; type: cell-based; settings: aerobic, nutrient agar, kanamycin-resistant
[12] = tested on: Enterococcus faecalis A9612; experiment: Antibacterial MIC, serial agar dilution; type: cell-based; settings: aerobic, nutrient agar
[13] = tested on: Staphylococcus aureus A20234; experiment: Antibacterial MIC, serial agar dilution; type: cell-based; settings: aerobic, nutrient agar, kanamycin-resistant
Escherichia coli NIHJ = experiment: Antibacterial MIC, serial agar dilution; type: cell-based; settings: aerobic, nutrient agar
P388 leukemia = experiment: Antitumor activity against P388 leukemia (ip); type: in vivo, mice; settings: for Body weight change on day 4 / MST (median survival time) / T/C: QD × 3, ip; for maximum T/C value: P388, ip, QD × 3
[14] = tested on: Serratia marcescens A20222; experiment: Antibacterial MIC, serial agar dilution; type: cell-based; settings: aerobic, nutrient agar
Canidia albicans A9540 = experiment: Antifungal MIC, Sabouraud dextrose agar; type: cell-based
[15] = tested on: Staphylococcus aureus A15097; experiment: Antibacterial MIC, serial agar dilution; type: cell-based; settings: aerobic, nutrient agar, methicillin-resistant
[16] = tested on: Klebsiella pneumoniae A20680; experiment: Antibacterial MIC, serial agar dilution; type: cell-based; settings: aerobic, nutrient agar, kanamycin-resistant
Escherichia coli A20665 = experiment: Antibacterial MIC, serial agar dilution; type: cell-based; settings: aerobic, nutrient agar, kanamycin-resistant
[17] = tested on: Aspergillus fumigatus IAM2034; experiment: Antifungal MIC, Sabouraud dextrose agar; type: cell-based
Canidia albicans IAM4888 = experiment: Antifungal MIC, Sabouraud dextrose agar; type: cell-based
[18] = tested on: Trichophyton mentagrophytes D155; experiment: Antifungal MIC, Sabouraud dextrose agar; type: cell-based
[19] = tested on: Peptostreptococcus anaerobius A21905; experiment: Antibacterial MIC, serial agar dilution; type: cell-based
[20] = tested on: Staphylococcus aureus BX1633; experiment: Antibacterial MIC, serial agar dilution; type: cell-based; settings: aerobic, nutrient agar, ampicillin-resistant
B16-F10 = experiment: In vitro cytotoxicity; type: cell-based, murine; settings: Mus musculus, 72 hours, neutral red, 540 nm
[21] = tested on: Staphylococcus aureus Smith; experiment: Antibacterial MIC, serial agar dilution; type: cell-based; settings: aerobic, nutrient agar
[22] = tested on: Pseudomonas aeruginosa A9930; experiment: Antibacterial MIC, serial agar dilution; type: cell-based; settings: aerobic, nutrient agar
[23] = tested on: Klebsiella pneumoniae D11; experiment: Antibacterial MIC, serial agar dilution; type: cell-based; settings: aerobic, nutrient agar
[24] = tested on: Bacteroides fragilis A22534; experiment: Antibacterial MIC, serial agar dilution; type: cell-based
Escherichia coli Juhl = experiment: Antibacterial MIC, serial agar dilution; type: cell-based; settings: aerobic, nutrient agar
[25] = tested on: Enterobacter cloacae A9659; experiment: Antibacterial MIC, serial agar dilution; type: cell-based; settings: aerobic, nutrient agar
Solubility = type: physicochemical
[26] = tested on: Staphylococcus aureus 209P; experiment: Antibacterial MIC, serial agar dilution; type: cell-based; settings: aerobic, nutrient agar
[27] = tested on: Staphylococcus aureus Smith; type: in vivo, mice; settings: single, im; for No. of survivor/tested: 5 days
Experimental: Mice were challenged intraperitoneally with 100 times the lethal dose of the pathogen in a 5% suspension of hog gastric mucin (American laboratory, Omaha, Nebr.). BU-3420T was administered to mice intramuscularly just before the bacterial challenge.

HCT-116 = experiment: In vitro cytotoxicity; type: cell-based; settings: Homo sapiens, 72 hours, neutral red, 540 nm
Proteus mirabilis A9554 = experiment: Antibacterial MIC, serial agar dilution; type: cell-based; settings: aerobic, nutrient agar
P388 = experiment: In vitro cytotoxicity; type: cell-based, murine; settings: Mus musculus, 72 hours, viable cell count
Experimental: (§1) On the other hand, the cytotoxic activities against P388 and P388/VCR cells were determined by counting the number of viable cells.

[28] = tested on: RNA synthesis in L1210 cells; experiment: Inhibition of macromolecule synthesis in L1210 leukemia; type: cell-based; settings: Mus musculus; 14C-uridine, L1210, 15 min + 60 min, 37° C.
P388/VCR = experiment: In vitro cytotoxicity
Experimental: as §1

[29] = tested on: Protein synthesis in L1210 cells; experiment: Inhibition of macromolecule synthesis in L1210 leukemia; type: cell-based; settings: Mus musculus; 3H-leucine, L1210, 15 min + 60 min, 37° C.
[30] = tested on: DNA synthesis in L1210 cells; experiment: as above; type: cell-based; settings: Mus musculus; 3H-thymidine, L1210, 15 min + 60 min, 37° C.

With C[C@@H]1[C@H](O)[C@@H](C)/C=C/C=C/C=C/C=C/C=C/C=C/C=C/[C@H](O[C@@H]2O[C@H](C)[C@@H](O)[C@H](N)[C@@H]2O)C[C@@H]2O[C@](O)(C[C@@H](O)C[C@@H](O)[C@H](O)CC[C@@H](O)C[C@@H](O)CC(=O)O[C@H]1C)C[C@H](O)[C@H]2C(=O)O [Amphotericin B, reference compound] the MIC [1] was 3100 ng/mL (≈ 3350 nM), the MIC [2] was 12500 ng/mL (≈ 13500 nM) and the MIC (Mucor spinosus IF05317) was 800 ng/mL (≈ 866 nM). For the same compound, the MIC [3] was 3100 ng/mL (≈ 3350 nM), the MIC [4] was under 200 ng/mL and the MIC [5] was under 200 ng/mL. The MIC (Piricularia oryzae D91) was 3100 ng/mL (≈ 3350 nM) and the MIC [6] was over 100000 ng/mL.

With COC1=C(C(=O)O)C(C)C23OC24c2cc(OC(C)=O)c5c(c2NC3C#C/C=C\C#CC14)C(=O)c1c(OC(C)=O)ccc(OC(C)=O)c1C5=O (centres unmarked) [BU-3420T acetate] the MIC (Micrococcus luteus 1001) was 0.2 ng/mL, the MIC [7] was 13 ng/mL and the MIC [8] was 25 ng/mL. For the same compound, the “activity against Gram-negative organisms” value [9] was “a little less susceptible”, the “activity against Gram-positive aerobic bacteria” value [9] was “intensely potent activity” and the “activity against anaerobic Gram-positive and negative bacteria versus clindamycin” value [9] was “much more active than clindamycin”. For the same compound, the “activity against certain kanamycin- and clindamycin-resistant bacteria” value [9] was “susceptible to both compounds”, the IC50 (Moser) was 0.003 ng/mL and the MIC [10] was 13 ng/mL. For the same compound, the MIC [11] was 0.013 ng/mL, the “antifungal activity versus amphotericin B” value (fungi) was “significantly more potent than amphotericin B” and the MIC [1] was 800 ng/mL. For the same compound, the MIC (Escherichia coli A9624) was 6.3 ng/mL, the MIC [12] was 0.1 ng/mL and the MIC [13] was 0.0063 ng/mL. For the same compound, the MIC (Escherichia coli NIHJ) was 6.3 ng/mL, the “Body weight change on day 4” value (P388 leukemia; 0.5 mg/kg/day) was -0.5 g and the “MST (median survival time)” value (P388 leukemia; 0.5 mg/kg/day) was 13.5 days. The T/C (P388 leukemia; 0.5 mg/kg/day) was 135%, the “Body weight change on day 4” value (P388 leukemia; 1.0 mg/kg/day) was -0.8 g and the “MST (median survival time)” value (P388 leukemia; 1.0 mg/kg/day) was 11.0 days. The T/C (P388 leukemia; 1.0 mg/kg/day) was 110%, the “maximum T/C value” (P388 leukemia) was 135% and the MIC [14] was 6.3 ng/mL. The MIC [2] was under 50 ng/mL, the MIC (Mucor spinosus IF05317) was 200 ng/mL and the MIC (Canidia albicans A9540) was 200 ng/mL. For the same compound, the MIC [15] was 0.0063 ng/mL, the MIC [3] was 400 ng/mL and the MIC [16] was 13 ng/mL. For the same compound, the MIC [4] was 800 ng/mL, the MIC (Escherichia coli A20665) was 13 ng/mL and the MIC [5] was 800 ng/mL. It also gave an MIC [17] of under 50 ng/mL, an MIC (Canidia albicans IAM4888) of 400 ng/mL and an MIC [18] of 400 ng/mL. It also gave an MIC [19] of 25 ng/mL, an MIC [20] of 0.0063 ng/mL and an IC50 (B16-F10) of 0.7 ng/mL. For the same compound, the MIC [21] was 0.0063 ng/mL, the MIC [22] was 6.3 ng/mL and the MIC [23] was 0.8 ng/mL. For the same compound, the MIC [24] was 50 ng/mL, the MIC (Escherichia coli Juhl) was 6.3 ng/mL and the MIC [25] was 6.3 ng/mL. The “solubility in organic solvents compared with BU-3420T” value (Solubility; organic solvents such as chloroform, methanol and ethanol) was “much improved solubility” and the MIC [26] was 0.0063 ng/mL.

With COC1=C(C(=O)O)C(C)C23OC24c2cc(O)c5c(c2NC3C#C/C=C\C#CC14)C(=O)c1c(O)ccc(O)c1C5=O (centres unmarked) [BU-3420T] the No. of survivor/tested ([27]; 0.01 mg/kg) was 0/5, the No. of survivor/tested ([27]; 0.04 mg/kg) was 0/5 and the ED50 ([27]; Staphylococcus aureus, 120 h, just before challenge, 5 days observation, read-out: PD50 (median protective dose)) was 0.13 mg/kg. The MIC (Micrococcus luteus 1001) was 0.8 ng/mL (≈ 1.49 nM), the MIC [7] was 13 ng/mL (≈ 24.2 nM) and the IC50 (HCT-116) was 0.42 ng/mL (≈ 0.781 nM). For the same compound, the “activity against Gram-negative organisms” value [9] was “a little less susceptible”, the “activity against Gram-positive aerobic bacteria” value [9] was “intensely potent activity” and the “activity against anaerobic Gram-positive and negative bacteria versus clindamycin” value [9] was “much more active than clindamycin”. For the same compound, the “activity against certain kanamycin- and clindamycin-resistant bacteria” value [9] was “susceptible to both compounds”, the IC50 (Moser) was 0.85 ng/mL (≈ 1.58 nM) and the MIC [11] was 0.05 ng/mL (≈ 0.093 nM). The MIC [1] was 12500 ng/mL (≈ 23300 nM), the MIC (Proteus mirabilis A9554) was 13 ng/mL (≈ 24.2 nM) and the MIC (Escherichia coli A9624) was 50 ng/mL (≈ 93 nM). For the same compound, the MIC [12] was 0.4 ng/mL (≈ 0.744 nM), the MIC (Escherichia coli NIHJ) was 50 ng/mL (≈ 93 nM) and the IC50 (P388) was 0.4 ng/mL (≈ 0.744 nM). The “Body weight change on day 4” value (P388 leukemia; 0.5 mg/kg/day) was 0.0 g, the “MST (median survival time)” value (P388 leukemia; 0.5 mg/kg/day) was 13.0 days and the T/C (P388 leukemia; 0.5 mg/kg/day) was 130%. For the same compound, the “Body weight change on day 4” value (P388 leukemia; 1.0 mg/kg/day) was -0.5 g, the “MST (median survival time)” value (P388 leukemia; 1.0 mg/kg/day) was 13.5 days and the T/C (P388 leukemia; 1.0 mg/kg/day) was 135%. The “maximum T/C value” (P388 leukemia) was 135%, the MIC (Mucor spinosus IF05317) was 12500 ng/mL (≈ 23300 nM) and the IC50 [28] was 9200 ng/mL. The IC50 (P388/VCR; Mus musculus, P388/VCR, 72 h) was 0.4 ng/mL (≈ 0.744 nM), the “cytotoxicity against VCR-sensitive versus resistant P388 cells” value (P388/VCR; P388 versus P388/VCR) was “same cytotoxicities against both VCR-sensitive and resistant P388 cells” and the MIC [4] was 12500 ng/mL (≈ 23300 nM). For the same compound, the IC50 [29] was 1500 ng/mL, the MIC (Escherichia coli A20665) was 50 ng/mL (≈ 93 nM) and the IC50 [30] was 18 ng/mL. The MIC [5] was 12500 ng/mL (≈ 23300 nM), the MIC (Canidia albicans IAM4888) was 12500 ng/mL (≈ 23300 nM) and the MIC [18] was 12500 ng/mL (≈ 23300 nM). For the same compound, the IC50 (B16-F10) was 5.2 ng/mL (≈ 9.67 nM), the MIC (Escherichia coli Juhl) was 50 ng/mL (≈ 93 nM) and the MIC [25] was 50 ng/mL (≈ 93 nM). The solubility (Solubility; chloroform, ethyl acetate, methanol and ethanol) was “slightly soluble”, the solubility (Solubility; dimethyl sulfoxide, dimethylformamide and dioxane) was “soluble” and the solubility (Solubility; water and n-hexane) was “insoluble”. The MIC [26] was 0.013 ng/mL (≈ 0.0242 nM).

Source: patent publication US4916065A (priority 1988, dated 1990)
